Results reported in US20130210846A1, “USE OF NOVEL PAN-CDK INHIBITORS FOR TREATING TUMORS” (BAYER INTELLECTUAL PROPERTY GMBH, priority 2010, published 2013).

Columns and labels:
[1] = tested on: MDA-MB 453; assay: Proliferation assay MDA-MB 453; assay type: cell-based; settings: Homo sapiens, 96 h; MDA-MB 453, estrogen receptor-negative mamma carcinoma; 4 days, crystal violet
Procedure: (§1) Cultivated human tumor cells (originally obtained from ATCC, HeLa-MaTu and HeLa-MaTu-ADR, originally obtained from Epo GmbH, Berlin, Germany) were plated at a density of 1000 to 5000 cells/measuring point, depending on the growth rate of the cell line, in a 96-well multititer plate in 200 μl of growth medium (DMEM/HAMS F12, 2 mM L-glutamine, 10% fetal calf serum). After 24 hours the cells of one plate (zero-point plate) were stained with crystal violet (see below), whereas the medium of the other plates was replaced with fresh culture medium (200 μl), to which the test substances had been added at various concentrations (0 μM, and in the range 0.01-30 μM; the final concentration of the solvent dimethyl sulfoxide was 0.5%). The cells were incubated for 4 days in the presence of the test substances. Cellular proliferation was determined by staining the cells with crystal violet: the cells were fixed by adding 20 μl/measuring point of an 11% glutaraldehyde solution for 15 min at room temperature. After washing the fixed cells with water three times, the plates were dried at room temperature. The cells were stained by adding 100 μl/measuring point of a 0.1% crystal violet solution (pH adjusted to pH3 by adding acetic acid). After washing the stained cells with water three times, the plates were dried at room temperature. The dye was dissolved by adding 100 μl/measuring point of a 10% acetic acid solution. The extinction was determined photometrically at a wavelength of 595 nm. The percentage change in cell growth was calculated by standardization of the measured values to the extinction values of the zero-point plate (=0%) and the extinction of the untreated (0 μM) cells (=100%). The measured data were standardized to 0% inhibition (cell proliferation without inhibitor) and 100% inhibition (zero-point plate). The IC50 values were determined by means of a 4-parameter fit using the company's own software.
(§2) The substances were examined in the following cell lines which, in an exemplary manner, represent the stated indications: […]

[2] = tested on: NCI-ADR-Res; assay: Proliferation assay NCI-ADR-Res; assay type: cell-based; settings: Homo sapiens, 96 h, ovarial carcinoma, 4 days, crystal violet
Procedure: as §1, §2

[3] = tested on: HT29; assay: Proliferation assay HT29; assay type: cell-based; settings: Homo sapiens, HT-29, 96 h; HT29, colon/rectum carcinoma; 4 days, crystal violet
Procedure: as §1, §2

[4] = tested on: MCF7; assay: Proliferation assay MCF7; assay type: cell-based, human; settings: MCF7, estrogen receptor-positive mamma carcinoma; 4 days, crystal violet
Procedure: as §1, §2

[5] = tested on: HeLa-MaTu; assay: Proliferation assay HeLa-MaTu; assay type: cell-based, human; settings: cervix carcinoma, 4 days, crystal violet
Procedure: as §1, §2

[6] = tested on: A431; assay: Proliferation assay A431; assay type: cell-based; settings: Homo sapiens, A-431, 96 h; A431, skin: epidermis; 4 days, crystal violet
Procedure: as §1, §2

[7] = target: T1, VEGF receptor tyrosine kinase-2 (VEGF-R2) (Homo sapiens, UniProt P35968); assay: VEGF receptor-2 kinase assay (Assay 3); assay type: biochemical; settings: 8 μM ATP, poly-(Glu4Tyr), 10 min 22° C.; read-out: VEGF-R2 (Assay 3) Concentration for half-maximal inhibition of the enzyme activity, IC50
T1 construct: GST; made in house; host or cells: baculovirus-infected insect cells (Sf9)
Procedure: Recombinant VEGF receptor tyrosine kinase-2 was purified as GST fusion protein from baculovirus-infected insect cells (Sf9). Poly-(Glu4Tyr), used as kinase substrate, was purchased from Sigma.
VEGF receptor tyrosine kinase (90 ng/measuring point) was incubated for 10 min at 22° C. in the presence of various concentrations of test substances (0 μM, and within the range 0.001-30 μM) in 30 μl assay buffer [40 mM Tris/HCl pH5.5, 10 mM MgCl2, 1 mM MnCl2, 3 μM Na ortho-vanadate, 1.0 mM dithiothreitol, 8 μM adenosine triphosphate (ATP), 0.96 μg/measuring point poly-(Glu4Tyr), 0.2 μCi/measuring point ^33P-gamma ATP, 1.4% dimethyl sulfoxide]. The reaction was stopped by adding EDTA solution (250 mM, pH 8.0, 15 μl/measuring point).
From each reaction mixture, 15 μl was applied to P30 filter strips (from Wallac), and unincorporated ^33P-ATP was removed by washing the filter strips three times, for 10 min each time, in 0.5% phosphoric acid. After drying the filter strips for 1 hour at 70° C., the filter strips were covered with scintillator strips (MeltiLex™ A, from Wallac) and stoved for 1 hour at 90° C. The amount of incorporated ^33P (substrate phosphorylation) was determined by scintillation measurement in a gamma-radiation measuring instrument (Wallac). The measured data were standardized to 0% inhibition (enzyme reaction without inhibitor) and 100% inhibition (all assay components except enzyme). The IC50 values were determined by means of a 4-parameter fit using the company's own software.

[8] = tested on: SW480; assay: Proliferation assay SW480; assay type: cell-based; settings: Homo sapiens, 96 h; SW480, colon/rectum carcinoma; 4 days, crystal violet
Procedure: as §1, §2

[9] = tested on: HCT116; assay: Proliferation assay HCT116; assay type: cell-based; settings: Homo sapiens, HCT-116, 96 h; HCT116, colon/rectum carcinoma; 4 days, crystal violet
Procedure: as §1, §2

[10] = tested on: MDA-MB 231; assay: Proliferation assay MDA-MB 231; assay type: cell-based; settings: Homo sapiens, 96 h; MDA-MB 231, estrogen receptor-negative mamma carcinoma; 4 days, crystal violet
Procedure: as §1, with “After washing the fixed cells with water three times, the plates were dried at room temperature. The cells were stained by adding 100 μl/measuring point of a 0.1% crystal violet solution (pH adjusted to pH3 by adding acetic acid). After washing the stained cells with water three times, the plates were dried at room temperature. The dye was dissolved by adding 100 μl/measuring point of a 10% acetic acid solution.” left out, “The measured data were standardized to 0% inhibition (cell proliferation without inhibitor) and 100% inhibition (zero-point plate).” left out, “software. […]” for “software.”

[11] = tested on: NCI-H460; assay: Proliferation assay NCI-H460; assay type: cell-based, human; settings: NCI-H460, non-small-cell bronchial carcinoma; 4 days, crystal violet
Procedure: as §1, §2

[12] = tested on: NCI-H69; assay: Proliferation assay NCI-H69; assay type: cell-based; settings: Homo sapiens, 96 h; NCI-H69, small-cell bronchial carcinoma; 4 days, crystal violet
Procedure: as §1, with “After washing the fixed cells with water three times, the plates were dried at room temperature. The cells were stained by adding 100 μl/measuring point of a 0.1% crystal violet solution (pH adjusted to pH3 by adding acetic acid). After washing the stained cells with water three times, the plates were dried at room temperature. The dye was dissolved by adding 100 μl/measuring point of a 10% acetic acid solution.” left out, “The measured data were standardized to 0% inhibition (cell proliferation without inhibitor) and 100% inhibition (zero-point plate).” left out, “software. […]” for “software.”

[13] = tested on: SK-BR-3; assay: Proliferation assay SK-BR-3; assay type: cell-based; settings: Homo sapiens, 96 h; SK-BR-3, estrogen receptor-negative mamma carcinoma; 4 days, crystal violet
Procedure: as §1, §2

[14] = tested on: HeLa; assay: Proliferation assay HeLa; assay type: cell-based; settings: Homo sapiens, 96 h, cervix carcinoma, 4 days, crystal violet
Procedure: as §1, §2

[15] = tested on: PC3; assay: Proliferation assay PC3; assay type: cell-based; settings: Homo sapiens, PC-3, 96 h; PC3, prostate carcinoma; 4 days, crystal violet
Procedure: as §1, §2

[16] = tested on: HeLa-MaTu-ADR; assay: Proliferation assay HeLa-MaTu-ADR; assay type: cell-based, human; settings: cervix carcinoma, 4 days, crystal violet
Procedure: as §1, §2

[17] = tested on: A375; assay: Proliferation assay A375; assay type: cell-based; settings: Homo sapiens, A-375, 96 h; A375, skin: melanoma; 4 days, crystal violet
Procedure: as §1, with “After washing the fixed cells with water three times, the plates were dried at room temperature. The cells were stained by adding 100 μl/measuring point of a 0.1% crystal violet solution (pH adjusted to pH3 by adding acetic acid). After washing the stained cells with water three times, the plates were dried at room temperature. The dye was dissolved by adding 100 μl/measuring point of a 10% acetic acid solution.” left out, “The measured data were standardized to 0% inhibition (cell proliferation without inhibitor) and 100% inhibition (zero-point plate).” left out, “software. […]” for “software.”

[18] = tested on: 786-O; assay: Proliferation assay 786-O; assay type: cell-based; settings: Homo sapiens, 786-0, 96 h, kidney carcinoma, 4 days, crystal violet
Procedure: as §1, §2

[19] = tested on: H1975; assay: Proliferation assay H1975; assay type: cell-based; settings: Homo sapiens, NCI-H1975, 96 h; H1975, non-small-cell bronchial carcinoma; 4 days, crystal violet
Procedure: as §1, §2

[20] = tested on: OVCAR-8; assay: Proliferation assay OVCAR-8; assay type: cell-based; settings: Homo sapiens, 96 h; OVCAR-8, ovarial carcinoma; 4 days, crystal violet
Procedure: as §1, with “After washing the fixed cells with water three times, the plates were dried at room temperature. The cells were stained by adding 100 μl/measuring point of a 0.1% crystal violet solution (pH adjusted to pH3 by adding acetic acid). After washing the stained cells with water three times, the plates were dried at room temperature. The dye was dissolved by adding 100 μl/measuring point of a 10% acetic acid solution.” left out, “The measured data were standardized to 0% inhibition (cell proliferation without inhibitor) and 100% inhibition (zero-point plate).” left out, “software. […]” for “software.”

[21] = tested on: Caco-2; assay: Proliferation assay Caco-2; assay type: cell-based, human; settings: Caco-2, colon/rectum carcinoma; 4 days, crystal violet
Procedure: as §1, §2

[22] = tested on: MOLM-13; assay: Proliferation assay MOLM-13; assay type: cell-based; settings: Homo sapiens, 96 h; MOLM-13, leukemia; 4 days, crystal violet
Procedure: as §1, with “After washing the fixed cells with water three times, the plates were dried at room temperature. The cells were stained by adding 100 μl/measuring point of a 0.1% crystal violet solution (pH adjusted to pH3 by adding acetic acid). After washing the stained cells with water three times, the plates were dried at room temperature. The dye was dissolved by adding 100 μl/measuring point of a 10% acetic acid solution.” left out, “The measured data were standardized to 0% inhibition (cell proliferation without inhibitor) and 100% inhibition (zero-point plate).” left out, “software. […]” for “software.”

[23] = tested on: DU145; assay: Proliferation assay DU145; assay type: cell-based, human; settings: DU145, prostate carcinoma; 4 days, crystal violet
Procedure: as §1, §2

[24] = tested on: A549; assay: Proliferation assay A549; assay type: cell-based; settings: Homo sapiens, 96 h; A549, non-small-cell bronchial carcinoma; 4 days, crystal violet
Procedure: as §1, §2

[25] = tested on: Caki2; assay: Proliferation assay Caki2; assay type: cell-based; settings: Homo sapiens, CAKI-2, 96 h; Caki2, kidney carcinoma; 4 days, crystal violet
Procedure: as §1, §2

[26] = tested on: MIA PaCa-2; assay: Proliferation assay MIA PaCa-2; assay type: cell-based; settings: Homo sapiens, 96 h; MIA PaCa-2, pancreas carcinoma; 4 days, crystal violet
Procedure: as §1, §2

T1 sequence (P35968 20-1356, species assumed): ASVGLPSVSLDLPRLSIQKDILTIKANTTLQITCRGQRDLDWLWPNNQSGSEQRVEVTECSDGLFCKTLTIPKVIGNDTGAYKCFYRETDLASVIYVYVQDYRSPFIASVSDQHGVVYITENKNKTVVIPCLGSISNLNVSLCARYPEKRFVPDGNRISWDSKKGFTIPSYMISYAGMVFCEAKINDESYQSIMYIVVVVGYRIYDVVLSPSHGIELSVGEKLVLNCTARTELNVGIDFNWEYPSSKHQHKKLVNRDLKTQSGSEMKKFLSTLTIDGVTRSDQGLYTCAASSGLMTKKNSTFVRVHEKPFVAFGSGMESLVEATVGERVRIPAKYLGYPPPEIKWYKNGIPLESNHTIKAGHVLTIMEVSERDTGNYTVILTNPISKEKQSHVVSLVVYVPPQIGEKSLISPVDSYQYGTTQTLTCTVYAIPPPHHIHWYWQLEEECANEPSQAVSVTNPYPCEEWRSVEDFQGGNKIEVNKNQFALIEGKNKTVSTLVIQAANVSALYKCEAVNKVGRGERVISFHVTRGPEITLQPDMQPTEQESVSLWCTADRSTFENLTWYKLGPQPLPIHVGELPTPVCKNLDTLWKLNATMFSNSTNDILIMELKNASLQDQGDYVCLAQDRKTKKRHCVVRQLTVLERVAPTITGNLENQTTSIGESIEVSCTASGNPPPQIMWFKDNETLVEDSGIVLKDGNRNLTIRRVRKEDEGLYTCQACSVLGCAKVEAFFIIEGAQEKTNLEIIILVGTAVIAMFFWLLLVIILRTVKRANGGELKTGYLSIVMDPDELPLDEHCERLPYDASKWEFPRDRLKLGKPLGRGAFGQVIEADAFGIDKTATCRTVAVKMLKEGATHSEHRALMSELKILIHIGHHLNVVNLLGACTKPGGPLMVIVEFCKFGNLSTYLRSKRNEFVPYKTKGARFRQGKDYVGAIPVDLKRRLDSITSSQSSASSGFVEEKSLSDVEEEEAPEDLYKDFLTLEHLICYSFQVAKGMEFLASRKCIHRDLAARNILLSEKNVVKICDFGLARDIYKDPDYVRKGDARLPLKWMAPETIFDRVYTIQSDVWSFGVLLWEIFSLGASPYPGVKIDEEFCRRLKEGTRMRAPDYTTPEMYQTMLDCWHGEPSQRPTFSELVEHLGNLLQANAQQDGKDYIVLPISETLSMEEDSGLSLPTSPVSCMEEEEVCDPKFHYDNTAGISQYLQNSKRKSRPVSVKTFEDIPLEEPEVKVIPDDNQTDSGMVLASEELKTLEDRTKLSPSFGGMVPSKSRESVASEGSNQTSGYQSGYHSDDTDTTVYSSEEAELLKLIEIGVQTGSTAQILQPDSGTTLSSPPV

IC50 [1]: 0.015 µM | IC50 [3]: 0.029 µM | IC50 [4]: 0.015 µM | IC50 [5]: 0.011 µM | IC50 [6]: 0.014 µM | IC50 [7]: 0.163 µM | IC50 [8]: 0.015 µM | IC50 [9]: 0.018 µM | IC50 [10]: 0.018 µM | IC50 [11]: 0.012 µM | IC50 [12]: 0.037 µM | IC50 [13]: 0.013 µM | IC50 [14]: 0.012 µM | IC50 [15]: 0.025 µM | IC50 [16]: 0.008 µM | IC50 [17]: 0.014 µM | IC50 [18]: 0.02 µM | IC50 [19]: 0.011 µM | IC50 [20]: 0.012 µM | IC50 [21]: 0.016 µM | IC50 [22]: 0.014 µM | IC50 [23]: 0.008 µM | IC50 [24]: 0.02 µM | IC50 [26]: 0.021 µM
SMILES: C[C@@H](O)[C@@H](C)Oc1nc(Nc2ccc(S(=N)(=O)C3CC3)cc2)ncc1C(F)(F)F (mixture of isomers) [Example 1-SI-2, (RS)—S-Cyclopropyl-S-(4-{[4-{[(1R,2R)-2-hydroxy-1-methylpropyl]oxy}-5-(trifluoromethyl)-pyrimidin-2-yl]amino}phenyl)sulfoximide]
IC50 [2]: 0.033 µM | IC50 [25]: 0.026 µM
